Source: patent EP0908457B1, “3-(1,2-benzisothiazol- and isoxazol-5-Y1)-2,4(1H,3H)-pyrimidinedione or thione and 3-(1,2-benzisothiazol- and isoxazol-5-y1)-4(3H)-pyrimidinone or thione herbicidal agents” (BASF AKTIENGESELLSCHAFT, priority 1997, dated 1999)
Where two headings read alike, the source gives them in different places.

How the values were obtained:
[1] = system: Echinochloa oryzoides (Ard.) Fritsch.; assay: Preemergence weed control under flooded paddy conditions, ECHORC (Watergrass (Calif.)); assay type: in vivo; details: flooded paddy; for ECHORC: preemergence weeds, herbicidal effect rating 0-9, three to four weeks after treatment; for herbicidal effect rating, ECHORC: preemergence, rated three to four weeks after treatment; on herbicidal effect rating, ECHORC: meaning of each grade not given here
Cyperus iria [2] = assay: Preemergence weed control under flooded paddy conditions, CYPIR (Rice Flatsedge); assay type: in vivo; details: flooded paddy; for CYPIR: preemergence weeds, herbicidal effect rating 0-9, three to four weeks after treatment; for herbicidal effect rating, CYPIR: preemergence, rated three to four weeks after treatment; on herbicidal effect rating, CYPIR: meaning of each grade not given here
[3] = system: Cyperus serotinus, Rottb.; assay: Preemergence weed control under flooded paddy conditions, CYPSE (Flatsedge); assay type: in vivo; details: for CYPSE: preemergence weeds, herbicidal effect rating 0-9, three to four weeks after treatment; for herbicidal effect rating, CYPSE: preemergence, rated three to four weeks after treatment; on herbicidal effect rating, CYPSE: meaning of each grade not given here
[4] = system: Monochoria vaginalis, Presl.; assay: Preemergence weed control under flooded paddy conditions, MOOVA (Monochoria); assay type: in vivo; details: flooded paddy; for MOOVA: preemergence weeds, herbicidal effect rating 0-9, three to four weeks after treatment; for herbicidal effect rating, MOOVA: preemergence, rated three to four weeks after treatment; on herbicidal effect rating, MOOVA: meaning of each grade not given here
Sagittaria pygmaea, L. [5] = assay: Preemergence weed control under flooded paddy conditions, SAGPY (Arrowhead (Pygmaea)); assay type: in vivo; details: flooded paddy; for SAGPY: preemergence weeds, herbicidal effect rating 0-9, three to four weeks after treatment; for herbicidal effect rating, SAGPY: preemergence, rated three to four weeks after treatment; on herbicidal effect rating, SAGPY: meaning of each grade not given here
[6] = system: Oryza sativa, (L.) Tebonnet; details: in vivo
[7] = system: Echinochloa oryzoides (Ard.) Fritsch.; assay: Postemergence weed control under flooded paddy conditions, ECHORC (Watergrass (Calif.)); assay type: in vivo; details: rated three to four weeks after treatment
Cyperus iria [8] = assay: Postemergence weed control under flooded paddy conditions, CYPIR (Rice Flatsedge); assay type: in vivo; details: rated three to four weeks after treatment
[9] = system: Cyperus serotinus, Rottb.; assay: Postemergence weed control under flooded paddy conditions, CYPSE (Flatsedge); assay type: in vivo; details: rated three to four weeks after treatment
[10] = system: Monochoria vaginalis, Presl.; assay: Postemergence weed control under flooded paddy conditions, MOOVA (Monochoria); assay type: in vivo; details: rated three to four weeks after treatment
Sagittaria pygmaea, L. [11] = assay: Postemergence weed control under flooded paddy conditions, SAGPY (Arrowhead (Pygmaea)); assay type: in vivo; details: rated three to four weeks after treatment
[12] = system: Oryza sativa, (L.) Tebonnet; assay: Rice tolerance to post-transplant applications under flooded paddy conditions (Example 187), ORYSAT (Rice, Tebonnet); details: rated three to four weeks after treatment
[13] = system: Oryza sativa, (L.) Tebonnet; assay: Rice tolerance to post-transplant applications under flooded paddy conditions (Example 188), ORYSAT (Rice, Tebonnet); details: rated three to four weeks after treatment

COC(OC)c1nsc2ccc(-n3c(=O)cc(C(F)(F)F)n(C)c3=O)cc12 [Example 453, 1,2-Benzisothiazole-3-carboxaldehyde, 5-[3,6-dihydro-3-methyl-2,6-dioxo-4-(trifluoromethyl)-1(2H)-pyrimidinyl]-, 3-(dimethylacetal)]
9.0: ECHORC ([1]; 0.0320 kg/ha) | ECHORC ([1]; 0.0620 kg/ha) | ECHORC ([1]; 0.1250 kg/ha) | ECHORC ([1]; 0.2500 kg/ha) | CYPIR (Cyperus iria [2]; 0.0320 kg/ha) | CYPIR (Cyperus iria [2]; 0.0620 kg/ha) | CYPIR (Cyperus iria [2]; 0.1250 kg/ha) | CYPIR (Cyperus iria [2]; 0.2500 kg/ha) | CYPSE ([3]; 0.0320 kg/ha) | CYPSE ([3]; 0.0620 kg/ha) | CYPSE ([3]; 0.1250 kg/ha) | CYPSE ([3]; 0.2500 kg/ha) | MOOVA ([4]; 0.0320 kg/ha) | MOOVA ([4]; 0.0620 kg/ha) | MOOVA ([4]; 0.1250 kg/ha) | MOOVA ([4]; 0.2500 kg/ha) | SAGPY (Sagittaria pygmaea, L. [5]; 0.0320 kg/ha) | SAGPY (Sagittaria pygmaea, L. [5]; 0.0620 kg/ha) | SAGPY (Sagittaria pygmaea, L. [5]; 0.1250 kg/ha) | SAGPY (Sagittaria pygmaea, L. [5]; 0.2500 kg/ha) | ORYSAT [6]

1-Methyl-3-(2-methyl-3-oxo-1,2-benzisoxazolin-5-yl)-6-(trifluoromethyl)-2,4(1H,3H)-pyrimidinedione [Example 44]
0.0: herbicidal effect rating, ECHORC ([1]; 0.0313 kg/ha) | herbicidal effect rating, ECHORC ([1]; 0.0625 kg/ha) | herbicidal effect rating, ECHORC ([1]; 0.1250 kg/ha) | herbicidal effect rating, ECHORC ([1]; 0.2500 kg/ha) | herbicidal effect rating, CYPIR (Cyperus iria [2]; 0.0313 kg/ha) | herbicidal effect rating, CYPIR (Cyperus iria [2]; 0.0625 kg/ha) | herbicidal effect rating, CYPIR (Cyperus iria [2]; 0.1250 kg/ha) | herbicidal effect rating, CYPIR (Cyperus iria [2]; 0.2500 kg/ha) | herbicidal effect rating, CYPSE ([3]; 0.0313 kg/ha) | herbicidal effect rating, CYPSE ([3]; 0.0625 kg/ha) | herbicidal effect rating, CYPSE ([3]; 0.1250 kg/ha) | herbicidal effect rating, CYPSE ([3]; 0.2500 kg/ha) | herbicidal effect rating, MOOVA ([4]; 0.0313 kg/ha) | herbicidal effect rating, MOOVA ([4]; 0.0625 kg/ha) | herbicidal effect rating, MOOVA ([4]; 0.1250 kg/ha) | herbicidal effect rating, MOOVA ([4]; 0.2500 kg/ha) | herbicidal effect rating, SAGPY (Sagittaria pygmaea, L. [5]; 0.0313 kg/ha) | herbicidal effect rating, SAGPY (Sagittaria pygmaea, L. [5]; 0.0625 kg/ha) | herbicidal effect rating, SAGPY (Sagittaria pygmaea, L. [5]; 0.1250 kg/ha) | herbicidal effect rating, SAGPY (Sagittaria pygmaea, L. [5]; 0.2500 kg/ha) | herbicidal effect rating, ORYSAT (rice tolerance) [6]

COC(=O)COc1ccc(C)cc1-c1nsc2ccc(-n3c(=O)cc(C(F)(F)F)n(C)c3=O)cc12 [Example 2, Methyl {{2-{5-[3,6-dihydro-3-methyl-4-(trifluoromethyl)-2,6-dioxo-1(2H)-pyrimidinyl]-1,2-benzisothiazol-3-yl}-p-tolyl}oxy}acetate]
8.0: herbicidal effect rating, CYPIR (Cyperus iria [2]; 0.0313 kg/ha) | herbicidal effect rating, ORYSAT (rice tolerance) ([13]; Rate 0.5000 kg/ha)
0.0: herbicidal effect rating, CYPSE ([3]; 0.0313 kg/ha) | herbicidal effect rating, CYPSE ([3]; 0.0625 kg/ha) | herbicidal effect rating, CYPSE ([3]; 0.1250 kg/ha) | herbicidal effect rating, CYPSE ([3]; 0.2500 kg/ha) | herbicidal effect rating, CYPSE ([3]; 0.5000 kg/ha) | herbicidal effect rating, SAGPY (Sagittaria pygmaea, L. [5]; 0.0313 kg/ha) | herbicidal effect rating, SAGPY (Sagittaria pygmaea, L. [5]; 0.0625 kg/ha) | herbicidal effect rating, CYPSE ([9]; Rate 0.0313 kg/ha) | herbicidal effect rating, CYPSE ([9]; Rate 0.0625 kg/ha) | herbicidal effect rating, CYPSE ([9]; Rate 0.1250 kg/ha) | herbicidal effect rating, CYPSE ([9]; Rate 0.2500 kg/ha) | herbicidal effect rating, CYPSE ([9]; Rate 0.5000 kg/ha) | herbicidal effect rating, SAGPY (Sagittaria pygmaea, L. [11]; Rate 0.0313 kg/ha) | herbicidal effect rating, SAGPY (Sagittaria pygmaea, L. [11]; Rate 0.0625 kg/ha) | herbicidal effect rating, SAGPY (Sagittaria pygmaea, L. [11]; Rate 0.1250 kg/ha)
5.0: herbicidal effect rating, ORYSAT (rice tolerance) ([12]; 0.2500 kg/ha)
7.0: herbicidal effect rating, MOOVA ([4]; 0.0313 kg/ha) | herbicidal effect rating, ECHORC ([7]; Rate 0.1250 kg/ha) | herbicidal effect rating, ORYSAT (rice tolerance) ([13]; Rate 0.2500 kg/ha)
9.0: herbicidal effect rating, ECHORC ([1]; 0.0313 kg/ha) | herbicidal effect rating, ECHORC ([1]; 0.0625 kg/ha) | herbicidal effect rating, ECHORC ([1]; 0.1250 kg/ha) | herbicidal effect rating, ECHORC ([1]; 0.2500 kg/ha) | herbicidal effect rating, ECHORC ([1]; 0.5000 kg/ha) | herbicidal effect rating, CYPIR (Cyperus iria [2]; 0.0625 kg/ha) | herbicidal effect rating, CYPIR (Cyperus iria [2]; 0.1250 kg/ha) | herbicidal effect rating, CYPIR (Cyperus iria [2]; 0.2500 kg/ha) | herbicidal effect rating, CYPIR (Cyperus iria [2]; 0.5000 kg/ha) | herbicidal effect rating, MOOVA ([4]; 0.0625 kg/ha) | herbicidal effect rating, MOOVA ([4]; 0.1250 kg/ha) | herbicidal effect rating, MOOVA ([4]; 0.2500 kg/ha) | herbicidal effect rating, MOOVA ([4]; 0.5000 kg/ha) | herbicidal effect rating, SAGPY (Sagittaria pygmaea, L. [5]; 0.5000 kg/ha) | herbicidal effect rating, ECHORC ([7]; Rate 0.2500 kg/ha) | herbicidal effect rating, ECHORC ([7]; Rate 0.5000 kg/ha) | herbicidal effect rating, CYPIR (Cyperus iria [8]; Rate 0.0313 kg/ha) | herbicidal effect rating, CYPIR (Cyperus iria [8]; Rate 0.0625 kg/ha) | herbicidal effect rating, CYPIR (Cyperus iria [8]; Rate 0.1250 kg/ha) | herbicidal effect rating, CYPIR (Cyperus iria [8]; Rate 0.2500 kg/ha) | herbicidal effect rating, CYPIR (Cyperus iria [8]; Rate 0.5000 kg/ha) | herbicidal effect rating, MOOVA ([10]; Rate 0.0313 kg/ha) | herbicidal effect rating, MOOVA ([10]; Rate 0.0625 kg/ha) | herbicidal effect rating, MOOVA ([10]; Rate 0.1250 kg/ha) | herbicidal effect rating, MOOVA ([10]; Rate 0.2500 kg/ha) | herbicidal effect rating, MOOVA ([10]; Rate 0.5000 kg/ha) | herbicidal effect rating, ORYSAT (rice tolerance) ([12]; 0.5000 kg/ha)
2.0: herbicidal effect rating, SAGPY (Sagittaria pygmaea, L. [5]; 0.1250 kg/ha) | herbicidal effect rating, SAGPY (Sagittaria pygmaea, L. [11]; Rate 0.2500 kg/ha) | herbicidal effect rating, ORYSAT (rice tolerance) ([12]; 0.0313 kg/ha) | herbicidal effect rating, ORYSAT (rice tolerance) ([13]; Rate 0.0313 kg/ha) | herbicidal effect rating, ORYSAT (rice tolerance) ([13]; Rate 0.0625 kg/ha)
4.0: herbicidal effect rating, SAGPY (Sagittaria pygmaea, L. [5]; 0.2500 kg/ha) | herbicidal effect rating, ECHORC ([7]; Rate 0.0313 kg/ha) | herbicidal effect rating, ECHORC ([7]; Rate 0.0625 kg/ha) | herbicidal effect rating, SAGPY (Sagittaria pygmaea, L. [11]; Rate 0.5000 kg/ha)
3.0: herbicidal effect rating, ORYSAT (rice tolerance) ([12]; 0.0625 kg/ha) | herbicidal effect rating, ORYSAT (rice tolerance) ([12]; 0.1250 kg/ha) | herbicidal effect rating, ORYSAT (rice tolerance) ([13]; Rate 0.1250 kg/ha)
